# Measured values taken from patent US11697667B2, “Salts and polymorphs of cethromycin for the treatment of disease” (AliquantumRx, Inc., priority 2019, dated 2023).
# Where “and” joins values, the source holds several entries; their conditions need not be identical. Equal entries are not always repeated. Entries after “also recorded” stand apart in the source; their conditions may differ.
# Legend:
# Assay type in all cases: physicochemical
# [1] = Storage stability at 40° C./75% RH and 25° C./97% RH (PXRD, HPLC, NMR); details: 9 days, Batch D
# Procedure: Studies were performed on various cethromycin forms in order to determine stability for storage.
# [2] = Solubility assessment of amorphous cethromycin chloride in solvents at 25° C.
# [3] = Preliminary solubility investigation of amorphous cethromycin in solvents; details: for Solubility: 50 °C, organic solvent or mixture, thermodynamic from solid, heated to 50° C.
# Procedure: Amorphous cethromycin (25 mg) in HPLC vials was treated with increasing volumes of solvent until the material fully dissolved or until a maximum of 60 vol (1.5 ml) had been added. After each addition of solvent, the vials were stirred and gently heated to 50° C. before the addition of a new aliquot of solvent. […] All solids were then isolated by filtration and dried under suction. Antisolvent (n-heptane, 10 or 20 vol) was added to any solutions and the resulting gums were matured in a chamber switching from 25° C. to 50° C. every four hours. All isolated solids were analysed by PXRD.
# [4] = Kinetic solubility (2 hours) in SGF media
# Procedure: Sufficient sample was suspended in 0.25 ml media for a maximum anticipated concentration of ca. 40 mg/ml of the free form of the compound. The resulting suspensions were then shaken at 25° C./750 rpm for 2 hours. After equilibration, the appearance was noted, and the pH of the saturated solution was measured. Samples were then filtered through a glass ‘C’ fibre filter (particle retention 1.2 μm). All the samples were diluted 100 times with SGF media. […] Different volumes of the standard and diluted sample solutions were injected.
# [5] = Thermodynamic solubility (24 hours) in DI water
# Procedure: (§1) Sufficient sample was suspended in 0.25 ml media for a maximum anticipated concentration of ca. 40 mg/ml of the free form of the compound. The resulting suspensions were then shaken at 25° C./750 rpm for 24 hours. The pH of samples suspended in PBS pH 7.4 were checked and adjusted if necessary (>0.05 change in pH) after 2 hours. After equilibration, the appearance was noted and the pH of the saturated solution was measured. Samples were then filtered through a glass ‘C’ fibre filter (Particle retention 1.2 μm). Samples suspended in PBS pH 7.4 buffer was diluted 10 times with PBS buffer and samples suspended in DI water diluted 100 times with DI water.
# [6] = Thermodynamic solubility (24 hours) in PBS media; details: PBS pH 7.4, 24 hr (Table 33)
# Procedure: as §1
# [7] = PXRD of residues undissolved after solubility analysis
# Procedure: PXRD analysis was performed on residues that remained undissolved after the solubility analysis to check for changes in solid form.
structure (smiles),measurement,setting,value
CCC1OC(=O)C(C)C(=O)C(C)C(OC2OC(C)CC(N(C)C)C2O)C(C)(OCC=Cc2cnc3ccccc3c2)CC(C)C(=O)C(C)C2NC(=O)OC12C.Cl (stereo not drawn) [amorphous cethromycin chloride],Storage at 40° C./75% RH for 9 days (PXRD),[1],did not crystallise; also recorded: amorphous
same,Solubility in selected solvents,[2]; 18 solvents,soluble in 10 of the 18 solvents
same,Solubility,"[2]; Acetone, 1 vol",✓ (dissolved)
same,Solubility,"[2]; EtOAc, 1 vol",x (not dissolved/too dry to slurry)
same,Solubility,"[2]; EtOAc, 2 vol",x (not dissolved/too dry to slurry)
same,Solubility,"[2]; EtOAc, 3 vol",x (not dissolved/too dry to slurry)
same,Solubility,"[2]; EtOAc, 4 vol",x (not dissolved/too dry to slurry)
same,Solubility,"[2]; EtOAc, 5 vol",✓o (slurry)
same,Solubility,"[2]; EtOH/H2O (10%), 1 vol",✓ (dissolved)
same,Solubility,"[2]; Ethanol, 1 vol",✓ (dissolved)
same,Solubility,"[2]; Hept, 1 vol",x (not dissolved/too dry to slurry)
same,Solubility,"[2]; Hept, 2 vol",x (not dissolved/too dry to slurry)
same,Solubility,"[2]; Hept, 3 vol",x (not dissolved/too dry to slurry)
same,Solubility,"[2]; Hept, 4 vol",x (not dissolved/too dry to slurry)
same,Solubility,"[2]; Hept, 5 vol",x (not dissolved/too dry to slurry)
same,Solubility,"[2]; Hept, 10 vol",✓o (slurry)
same,Solubility,"[2]; MEK, 1 vol",x (not dissolved/too dry to slurry)
same,Solubility,"[2]; MEK, 2 vol",x (not dissolved/too dry to slurry)
same,Solubility,"[2]; MEK, 3 vol",x (not dissolved/too dry to slurry)
same,Solubility,"[2]; MEK, 4 vol",x (not dissolved/too dry to slurry)
same,Solubility,"[2]; MEK, 5 vol",✓o (slurry)
same,Solubility,"[2]; MIBK, 1 vol",x (not dissolved/too dry to slurry)
same,Solubility,"[2]; MIBK, 2 vol",x (not dissolved/too dry to slurry)
same,Solubility,"[2]; MIBK, 3 vol",x (not dissolved/too dry to slurry)
same,Solubility,"[2]; MIBK, 4 vol",x (not dissolved/too dry to slurry)
same,Solubility,"[2]; MIBK, 5 vol",✓o (slurry)
same,Solubility,"[2]; MTBE, 1 vol",x (not dissolved/too dry to slurry)
same,Solubility,"[2]; MTBE, 2 vol",x (not dissolved/too dry to slurry)
same,Solubility,"[2]; MTBE, 3 vol",x (not dissolved/too dry to slurry)
same,Solubility,"[2]; MTBE, 4 vol",x (not dissolved/too dry to slurry)
same,Solubility,"[2]; MTBE, 10 vol",✓o (slurry)
same,Solubility,"[2]; MeCN, 1 vol",✓ (dissolved)
same,Solubility,"[2]; MeOH, 1 vol",✓ (dissolved)
same,Solubility,"[2]; THF, 1 vol",x (not dissolved/too dry to slurry)
same,Solubility,"[2]; THF, 2 vol",x (not dissolved/too dry to slurry)
same,Solubility,"[2]; THF, 3 vol",x (not dissolved/too dry to slurry)
same,Solubility,"[2]; THF, 4 vol",x (not dissolved/too dry to slurry)
same,Solubility,"[2]; THF, 5 vol",✓ (dissolved)
same,Solubility,"[2]; THF/H2O (10%), 1 vol",✓ (dissolved)
same,Solubility,"[2]; Toluene, 1 vol",x (not dissolved/too dry to slurry)
same,Solubility,"[2]; Toluene, 2 vol",x (not dissolved/too dry to slurry)
same,Solubility,"[2]; Toluene, 3 vol",x (not dissolved/too dry to slurry)
same,Solubility,"[2]; Toluene, 4 vol",x (not dissolved/too dry to slurry)
same,Solubility,"[2]; Toluene, 5 vol",x (not dissolved/too dry to slurry)
same,Solubility,"[2]; Toluene, 10 vol",✓o (slurry)
same,Solubility,"[2]; cHex, 1 vol",x (not dissolved/too dry to slurry)
same,Solubility,"[2]; cHex, 2 vol",x (not dissolved/too dry to slurry)
same,Solubility,"[2]; cHex, 3 vol",x (not dissolved/too dry to slurry)
same,Solubility,"[2]; cHex, 4 vol",x (not dissolved/too dry to slurry)
same,Solubility,"[2]; cHex, 5 vol",x (not dissolved/too dry to slurry)
same,Solubility,"[2]; cHex, 10 vol",✓o (slurry)
same,Solubility,"[2]; iBuOH, 1 vol",✓ (dissolved)
same,Solubility,"[2]; iPrOAc, 1 vol",x (not dissolved/too dry to slurry)
same,Solubility,"[2]; iPrOAc, 2 vol",x (not dissolved/too dry to slurry)
same,Solubility,"[2]; iPrOAc, 3 vol",x (not dissolved/too dry to slurry)
same,Solubility,"[2]; iPrOAc, 4 vol",x (not dissolved/too dry to slurry)
same,Solubility,"[2]; iPrOAc, 5 vol",x (not dissolved/too dry to slurry)
same,Solubility,"[2]; iPrOAc, 10 vol",✓o (slurry)
same,Solubility,"[2]; iPrOH, 1 vol",✓ (dissolved)
same,Solubility,"[2]; iPrOH/H2O (10%), 1 vol",✓ (dissolved)
"CC[C@H]1OC(=O)[C@H](C)C(=O)[C@H](C)[C@@H](O[C@@H]2O[C@H](C)C[C@H](N(C)C)[C@H]2O)[C@](C)(OC/C=C/c2cnc3ccccc3c2)C[C@@H](C)C(=O)[C@H](C)[C@H]2NC(=O)O[C@@]21C [Cethromycin, (3aS,4R,7R,9R,10R,11R,13R,15R,15aR)-10-(((2S,3R,4S,6R)-4-(dimethylamino)-3-hydroxy-6-methyltetrahydro-2H-pyran-2-yl)oxy)-4-ethyl-3a,7,9,11,13,15-hexamethyl-11-(((E)-3-(quinolin-3-yl)allyl)oxy)octahydro-2H-[1]oxa-cyclotetradecino[4,3-d]oxazole-2,6,8,14(1H,7H,9H)-tetraone]",Solubility,"[3]; 2-propanol, 10 vol",> 100 mg/mL
same,Solubility in solvents,"[3]; 10 vol of THF:H2O (9:1), 2-propanol, EtOH, EtOAc, acetone, MeCN, THF, TBME and DCM",readily soluble
same,Solubility,"[3]; DCM, 10 vol",> 100 mg/mL
same,Solubility,"[3]; EtOAc, 10 vol",> 100 mg/mL
same,Solubility,"[3]; EtOH, 10 vol",> 100 mg/mL
same,Solubility,"[3]; Hept (heptane), Hept, 10 vol",< 100 mg/mL
same,Solubility,"[3]; Hept (heptane), Hept, 20 vol",< 50 mg/mL
same,Solubility,"[3]; Hept (heptane), Hept, 30 vol",< 33.3 mg/mL
same,Solubility,"[3]; Hept (heptane), Hept, 40 vol",< 25 mg/mL
same,Solubility,"[3]; Hept (heptane), Hept, 50 vol",< 20 mg/mL
same,Solubility,"[3]; Hept (heptane), Hept, 60 vol",< 16.7 mg/mL
same,Solubility,"[3]; MeCN, 10 vol",> 100 mg/mL
same,Solubility,"[3]; TBME, 10 vol",> 100 mg/mL
same,Solubility,"[3]; THF, 10 vol",> 100 mg/mL
same,Solubility,"[3]; THF:H2O (9:1), THF:H2O (9:1), 10 vol",> 100 mg/mL
same,Solubility,"[3]; acetone, 10 vol",> 100 mg/mL
same,solubility kinetic at 2 h,"[4]; simulated gastric fluid, thermodynamic from solid, 2 hours, 25° C.",25 mg/mL
same,"pH of the saturated solution, thermodynamic solubility in DI water","[5]; DI water, 24 hours",7.0
same,solubility thermodynamic at 24 h,"[5]; thermodynamic from solid, DI water, 24 hours, 25° C.",0.4 mg/mL
CCC1OC(=O)C(C)C(=O)C(C)C(OC2OC(C)CC(N(C)C)C2O)C(C)(OCC=Cc2cnc3ccccc3c2)CC(C)C(=O)C(C)C2NC(=O)OC12C (stereo not drawn) [Free form],Avg Sol'y,[4]; 2 hr (Table 32),25 mg/mL
same,Sol'y,[4]; 2 hr (Table 32),24 mg/mL
same,pH at 2 hrs,[4]; 2 hr (Table 32),7.6 and 7.5
same,Avg Sol'y,"[5]; DI Water, 24 hr (Table 34)",0.41 mg/mL
same,Sol'y,"[5]; DI Water, 24 hr (Table 34)",0.47 mg/mL and 0.35 mg/mL
same,pH at 24 hrs,"[5]; DI Water, 24 hr (Table 34)",8.1
same,Avg Sol'y,[6],2.0 mg/mL
same,Sol'y,[6],2.0 mg/mL and 1.9 mg/mL
same,pH at 24 hrs,[6],6.8
same,PXRD of Residues,"[7]; PBS pH 7.4, 24 hr",freebase pattern 2
same,PXRD of Residues,"[7]; SGF media, 2 hr",amorphous
